Measured values published in ChEMBL document CHEMBL1201862, “PubChem BioAssay data set” (2004).
The source made the active and inactive calls.

Columns and labels:
[1] = Counterscreen for IDE inhibitors: Luminescence-based cell-based high throughput dose response assay to identify compounds that are cytotoxic to HEK cells. [Related pubchem assays: 434962 (Primary screen (IDE inhibitors in singlicate)), 449730 (Counterscreen (Cytotoxicity in triplicate)), 435028 (Confirmation (IDE inhibitors in triplicate)) …; format: functional; conditions: HEK293
Insulin-degrading enzyme = molecular target: T1, Insulin-degrading enzyme (Homo sapiens, UniProt P14735); assay: Dose Response: Fluorescence polarization-based cell-based high throughput dose response assay for inhibitors of insulin-degrading enzyme (IDE). [Related pubchem assays: 434962 (Primary screen (IDE inhibitors in singlicate)), 449730 (Counterscreen (Cytotoxicity in triplicate)), 435028 (Confirmation (IDE inhibitors in triplicate)), 434984 (Summary …; format: functional
T1 sequence (P14735 whole entry): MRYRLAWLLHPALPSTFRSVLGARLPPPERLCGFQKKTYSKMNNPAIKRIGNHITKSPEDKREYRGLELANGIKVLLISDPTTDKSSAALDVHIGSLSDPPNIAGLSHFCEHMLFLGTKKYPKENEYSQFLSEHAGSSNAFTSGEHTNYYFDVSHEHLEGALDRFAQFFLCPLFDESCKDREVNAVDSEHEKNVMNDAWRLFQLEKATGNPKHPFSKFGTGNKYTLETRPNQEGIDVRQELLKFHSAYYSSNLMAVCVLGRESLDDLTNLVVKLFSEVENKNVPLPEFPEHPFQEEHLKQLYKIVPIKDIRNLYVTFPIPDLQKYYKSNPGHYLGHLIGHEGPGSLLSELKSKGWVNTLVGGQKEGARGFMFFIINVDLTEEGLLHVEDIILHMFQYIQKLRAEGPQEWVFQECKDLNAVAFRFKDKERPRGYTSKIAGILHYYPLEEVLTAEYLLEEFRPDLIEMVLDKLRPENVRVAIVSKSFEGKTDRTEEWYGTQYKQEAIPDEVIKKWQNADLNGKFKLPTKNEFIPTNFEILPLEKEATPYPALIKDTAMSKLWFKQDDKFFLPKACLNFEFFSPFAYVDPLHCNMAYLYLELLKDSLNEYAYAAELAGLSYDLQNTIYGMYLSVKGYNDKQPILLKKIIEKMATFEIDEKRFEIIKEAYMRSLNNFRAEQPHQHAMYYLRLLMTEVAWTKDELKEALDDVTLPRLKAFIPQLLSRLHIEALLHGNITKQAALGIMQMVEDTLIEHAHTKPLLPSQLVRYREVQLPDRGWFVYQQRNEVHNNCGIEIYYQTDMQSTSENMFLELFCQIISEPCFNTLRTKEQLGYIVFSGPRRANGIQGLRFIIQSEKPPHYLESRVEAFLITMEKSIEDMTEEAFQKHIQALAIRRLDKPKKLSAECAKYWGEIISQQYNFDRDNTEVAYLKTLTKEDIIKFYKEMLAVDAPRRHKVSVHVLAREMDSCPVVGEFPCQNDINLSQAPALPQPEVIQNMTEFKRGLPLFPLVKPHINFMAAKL

[2] = HEK-293T cell viability reduction – luminescence, B-cell screen hits, cytotoxicity control for BCR NF-kB inhibitor project, dose response (AID 489021); format: functional, cell-based;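 note: HEK-293T cells carrying an NF-kB luciferase reporter; cells exposed to compound for about 14 hours before viability readout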
Aminopeptidase N = molecular target: T2, Aminopeptidase N (Plasmodium falciparum FcB1/Columbia, UniProt O96935); assay: malaria alanyl aminopeptidase activity blockers – biochemical, fluorogenic H-Leu-NHMec substrate, 1536-well (AID 1445); design: species or system Plasmodium falciparum 3D7, 3D7
T2 sequence (O96935 whole entry): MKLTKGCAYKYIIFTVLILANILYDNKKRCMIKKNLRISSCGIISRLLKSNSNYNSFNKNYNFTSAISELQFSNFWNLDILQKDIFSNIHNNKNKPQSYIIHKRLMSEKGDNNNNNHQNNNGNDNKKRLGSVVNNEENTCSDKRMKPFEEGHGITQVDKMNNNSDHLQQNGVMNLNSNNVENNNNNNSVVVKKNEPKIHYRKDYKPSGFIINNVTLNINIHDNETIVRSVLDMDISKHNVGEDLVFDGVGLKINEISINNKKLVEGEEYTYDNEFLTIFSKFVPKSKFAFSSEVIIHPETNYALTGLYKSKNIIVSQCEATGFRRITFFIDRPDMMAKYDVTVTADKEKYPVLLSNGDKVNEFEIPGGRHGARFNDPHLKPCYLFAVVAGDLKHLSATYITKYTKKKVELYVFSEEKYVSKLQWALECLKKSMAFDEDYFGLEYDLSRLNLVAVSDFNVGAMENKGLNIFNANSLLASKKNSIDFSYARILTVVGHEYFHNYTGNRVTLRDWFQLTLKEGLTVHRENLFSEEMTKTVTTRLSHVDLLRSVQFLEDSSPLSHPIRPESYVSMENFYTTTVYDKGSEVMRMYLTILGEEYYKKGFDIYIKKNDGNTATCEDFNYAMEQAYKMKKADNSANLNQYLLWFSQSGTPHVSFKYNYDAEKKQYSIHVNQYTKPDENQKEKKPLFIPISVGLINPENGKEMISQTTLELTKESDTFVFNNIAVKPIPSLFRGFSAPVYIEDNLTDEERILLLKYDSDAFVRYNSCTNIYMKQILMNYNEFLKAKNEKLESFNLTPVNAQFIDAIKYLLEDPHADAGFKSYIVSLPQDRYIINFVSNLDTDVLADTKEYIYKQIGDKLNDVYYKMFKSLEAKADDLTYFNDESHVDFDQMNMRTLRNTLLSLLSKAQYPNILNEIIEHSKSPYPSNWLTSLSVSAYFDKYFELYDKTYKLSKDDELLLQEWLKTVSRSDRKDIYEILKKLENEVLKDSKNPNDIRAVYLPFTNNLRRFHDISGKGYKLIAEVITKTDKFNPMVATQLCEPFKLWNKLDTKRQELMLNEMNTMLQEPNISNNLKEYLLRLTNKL

Coagulation factor XII = molecular target: T3, Coagulation factor XII (Homo sapiens, UniProt P00748); format: functional;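 note: activated factor XIIa alpha cleaving a fluorogenic AMC peptide substrate; inhibitor potency from loss of enzyme activity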
T3 sequence (P00748 whole entry): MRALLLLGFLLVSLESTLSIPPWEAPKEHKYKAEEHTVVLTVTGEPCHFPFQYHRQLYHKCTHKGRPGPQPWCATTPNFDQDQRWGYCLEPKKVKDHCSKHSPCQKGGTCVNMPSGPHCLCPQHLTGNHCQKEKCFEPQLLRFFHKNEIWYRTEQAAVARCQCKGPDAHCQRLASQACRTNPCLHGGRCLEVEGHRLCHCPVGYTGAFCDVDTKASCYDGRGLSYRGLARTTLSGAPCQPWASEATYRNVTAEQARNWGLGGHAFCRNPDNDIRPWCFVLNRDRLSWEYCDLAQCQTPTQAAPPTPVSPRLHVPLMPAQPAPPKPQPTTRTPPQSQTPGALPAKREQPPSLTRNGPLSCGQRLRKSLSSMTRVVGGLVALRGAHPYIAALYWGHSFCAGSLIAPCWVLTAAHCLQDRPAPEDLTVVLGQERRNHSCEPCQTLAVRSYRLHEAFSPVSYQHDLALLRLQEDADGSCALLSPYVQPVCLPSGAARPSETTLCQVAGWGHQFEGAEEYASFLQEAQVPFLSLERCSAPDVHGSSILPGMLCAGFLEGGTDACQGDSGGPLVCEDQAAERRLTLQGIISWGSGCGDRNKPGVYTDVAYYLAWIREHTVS

[3] = molecular target: Peroxisome proliferator-activated receptor gamma/Nuclear receptor corepressor 2 (Homo sapiens, UniProt P37231+Q9Y618); format: functional
Chain of Peroxisome proliferator-activated receptor gamma/Nuclear receptor corepressor 2 (P37231 whole entry): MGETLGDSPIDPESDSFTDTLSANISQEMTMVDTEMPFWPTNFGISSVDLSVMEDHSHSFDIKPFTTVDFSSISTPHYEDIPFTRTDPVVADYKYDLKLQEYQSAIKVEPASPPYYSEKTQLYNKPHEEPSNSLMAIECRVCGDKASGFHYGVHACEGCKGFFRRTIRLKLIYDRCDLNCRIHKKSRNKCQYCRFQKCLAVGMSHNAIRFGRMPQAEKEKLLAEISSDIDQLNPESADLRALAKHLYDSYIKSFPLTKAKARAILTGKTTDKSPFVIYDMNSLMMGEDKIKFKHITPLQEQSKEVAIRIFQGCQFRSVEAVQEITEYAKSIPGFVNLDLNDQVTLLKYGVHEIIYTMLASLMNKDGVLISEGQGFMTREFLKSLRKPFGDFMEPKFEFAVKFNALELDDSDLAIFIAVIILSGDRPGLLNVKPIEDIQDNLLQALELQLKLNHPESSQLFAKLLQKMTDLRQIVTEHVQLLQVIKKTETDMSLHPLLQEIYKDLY
Chain of Peroxisome proliferator-activated receptor gamma/Nuclear receptor corepressor 2 (Q9Y618 whole entry): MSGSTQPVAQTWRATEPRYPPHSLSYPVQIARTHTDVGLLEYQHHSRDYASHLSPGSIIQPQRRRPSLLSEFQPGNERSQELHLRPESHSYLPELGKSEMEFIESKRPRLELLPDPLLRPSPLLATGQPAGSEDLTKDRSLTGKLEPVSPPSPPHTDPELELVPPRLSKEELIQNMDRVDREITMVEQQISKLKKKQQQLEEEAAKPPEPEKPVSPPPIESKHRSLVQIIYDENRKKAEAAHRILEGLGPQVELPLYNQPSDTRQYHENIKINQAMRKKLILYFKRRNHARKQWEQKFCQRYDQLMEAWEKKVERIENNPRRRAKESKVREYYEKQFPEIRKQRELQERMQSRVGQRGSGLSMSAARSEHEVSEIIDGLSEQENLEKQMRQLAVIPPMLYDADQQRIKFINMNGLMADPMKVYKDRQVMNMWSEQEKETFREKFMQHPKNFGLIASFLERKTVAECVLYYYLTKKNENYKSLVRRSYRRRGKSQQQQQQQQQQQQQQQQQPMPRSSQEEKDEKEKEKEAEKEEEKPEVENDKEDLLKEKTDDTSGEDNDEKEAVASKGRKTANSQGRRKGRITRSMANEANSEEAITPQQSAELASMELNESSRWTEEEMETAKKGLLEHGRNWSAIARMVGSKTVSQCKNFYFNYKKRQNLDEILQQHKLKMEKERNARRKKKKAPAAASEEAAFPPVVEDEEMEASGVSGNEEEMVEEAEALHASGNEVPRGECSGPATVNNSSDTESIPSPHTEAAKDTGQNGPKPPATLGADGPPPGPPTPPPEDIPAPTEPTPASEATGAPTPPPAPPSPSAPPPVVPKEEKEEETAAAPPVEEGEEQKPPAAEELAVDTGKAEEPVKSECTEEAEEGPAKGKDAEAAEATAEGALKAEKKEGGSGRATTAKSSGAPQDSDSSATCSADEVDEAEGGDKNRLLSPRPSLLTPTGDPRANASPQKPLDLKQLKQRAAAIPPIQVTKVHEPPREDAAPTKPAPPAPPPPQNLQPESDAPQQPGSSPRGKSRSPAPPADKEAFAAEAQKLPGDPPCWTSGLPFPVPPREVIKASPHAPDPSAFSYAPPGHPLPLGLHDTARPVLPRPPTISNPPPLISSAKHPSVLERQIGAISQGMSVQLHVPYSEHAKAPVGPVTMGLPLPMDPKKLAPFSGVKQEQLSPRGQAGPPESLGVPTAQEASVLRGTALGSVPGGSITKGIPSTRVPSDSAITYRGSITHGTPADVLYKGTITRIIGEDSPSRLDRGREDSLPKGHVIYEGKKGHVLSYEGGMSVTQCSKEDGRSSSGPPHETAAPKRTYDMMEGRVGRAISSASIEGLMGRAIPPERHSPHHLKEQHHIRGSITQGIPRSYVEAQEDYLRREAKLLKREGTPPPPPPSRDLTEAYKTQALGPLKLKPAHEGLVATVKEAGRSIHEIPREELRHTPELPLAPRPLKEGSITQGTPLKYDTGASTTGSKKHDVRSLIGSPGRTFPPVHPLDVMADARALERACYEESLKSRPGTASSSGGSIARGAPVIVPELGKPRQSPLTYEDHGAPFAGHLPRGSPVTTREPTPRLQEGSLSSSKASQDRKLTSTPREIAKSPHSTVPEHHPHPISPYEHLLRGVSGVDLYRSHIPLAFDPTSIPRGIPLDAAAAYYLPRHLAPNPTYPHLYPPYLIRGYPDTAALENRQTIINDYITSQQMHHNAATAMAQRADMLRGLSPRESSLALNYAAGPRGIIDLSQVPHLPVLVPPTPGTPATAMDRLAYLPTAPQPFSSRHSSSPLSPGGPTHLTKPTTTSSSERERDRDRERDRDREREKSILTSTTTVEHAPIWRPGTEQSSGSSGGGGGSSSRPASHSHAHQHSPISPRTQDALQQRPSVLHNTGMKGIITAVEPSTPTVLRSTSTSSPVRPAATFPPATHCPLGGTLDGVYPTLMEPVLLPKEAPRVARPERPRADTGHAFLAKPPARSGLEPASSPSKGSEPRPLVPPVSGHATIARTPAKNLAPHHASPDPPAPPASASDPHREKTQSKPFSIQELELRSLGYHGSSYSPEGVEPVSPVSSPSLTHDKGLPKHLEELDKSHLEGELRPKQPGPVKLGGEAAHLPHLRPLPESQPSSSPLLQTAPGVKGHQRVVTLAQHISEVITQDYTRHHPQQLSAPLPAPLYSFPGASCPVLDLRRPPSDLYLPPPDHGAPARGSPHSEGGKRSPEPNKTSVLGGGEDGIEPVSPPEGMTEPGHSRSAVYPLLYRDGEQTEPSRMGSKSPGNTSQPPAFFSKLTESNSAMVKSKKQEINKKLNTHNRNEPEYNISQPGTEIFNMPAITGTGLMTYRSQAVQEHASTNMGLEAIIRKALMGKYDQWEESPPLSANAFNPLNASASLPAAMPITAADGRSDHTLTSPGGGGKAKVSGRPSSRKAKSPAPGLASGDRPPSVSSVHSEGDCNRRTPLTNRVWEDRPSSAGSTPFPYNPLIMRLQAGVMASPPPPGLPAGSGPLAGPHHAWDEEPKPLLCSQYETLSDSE

[4] = molecular target: Photoreceptor-specific nuclear receptor (Homo sapiens, UniProt Q9Y5X4); format: functional;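 note: potency for compounds that break the NR2E3 corepressor complex and count as activators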
Chain of Photoreceptor-specific nuclear receptor (Q9Y5X4 whole entry): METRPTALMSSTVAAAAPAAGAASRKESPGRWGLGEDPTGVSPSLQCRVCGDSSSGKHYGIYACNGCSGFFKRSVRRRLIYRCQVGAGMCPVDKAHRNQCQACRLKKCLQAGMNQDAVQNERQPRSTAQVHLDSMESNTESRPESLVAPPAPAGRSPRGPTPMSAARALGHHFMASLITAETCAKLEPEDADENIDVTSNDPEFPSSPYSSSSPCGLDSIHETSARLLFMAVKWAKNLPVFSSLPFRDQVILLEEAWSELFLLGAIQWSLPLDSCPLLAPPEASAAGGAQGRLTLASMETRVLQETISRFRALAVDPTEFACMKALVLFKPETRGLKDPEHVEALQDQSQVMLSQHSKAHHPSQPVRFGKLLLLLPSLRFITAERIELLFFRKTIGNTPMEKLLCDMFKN

[5] = molecular target: T4, Ubiquitin-conjugating enzyme E2 N (Homo sapiens, UniProt P61088); format: functional;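 note: Dose-response confirmation in a TR-FRET assay detecting UBC13-driven polyubiquitin chain formation, inhibition measured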
T4 sequence (P61088 whole entry): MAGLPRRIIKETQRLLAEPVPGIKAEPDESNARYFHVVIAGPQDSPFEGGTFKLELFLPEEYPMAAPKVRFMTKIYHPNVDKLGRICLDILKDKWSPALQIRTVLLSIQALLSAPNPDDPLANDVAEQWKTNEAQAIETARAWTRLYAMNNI

[6] = viability of uninfected HEp-2 cells – cell-based, HTS, cytotoxicity control for RSV inhibitor project, dose response (AID 2410); format: functional; conditions: human respiratory syncytial virus
[7] = molecular target: T5, Apoptotic protease-activating factor 1 (Homo sapiens, UniProt O14727); format: functional
T5 sequence (O14727 whole entry): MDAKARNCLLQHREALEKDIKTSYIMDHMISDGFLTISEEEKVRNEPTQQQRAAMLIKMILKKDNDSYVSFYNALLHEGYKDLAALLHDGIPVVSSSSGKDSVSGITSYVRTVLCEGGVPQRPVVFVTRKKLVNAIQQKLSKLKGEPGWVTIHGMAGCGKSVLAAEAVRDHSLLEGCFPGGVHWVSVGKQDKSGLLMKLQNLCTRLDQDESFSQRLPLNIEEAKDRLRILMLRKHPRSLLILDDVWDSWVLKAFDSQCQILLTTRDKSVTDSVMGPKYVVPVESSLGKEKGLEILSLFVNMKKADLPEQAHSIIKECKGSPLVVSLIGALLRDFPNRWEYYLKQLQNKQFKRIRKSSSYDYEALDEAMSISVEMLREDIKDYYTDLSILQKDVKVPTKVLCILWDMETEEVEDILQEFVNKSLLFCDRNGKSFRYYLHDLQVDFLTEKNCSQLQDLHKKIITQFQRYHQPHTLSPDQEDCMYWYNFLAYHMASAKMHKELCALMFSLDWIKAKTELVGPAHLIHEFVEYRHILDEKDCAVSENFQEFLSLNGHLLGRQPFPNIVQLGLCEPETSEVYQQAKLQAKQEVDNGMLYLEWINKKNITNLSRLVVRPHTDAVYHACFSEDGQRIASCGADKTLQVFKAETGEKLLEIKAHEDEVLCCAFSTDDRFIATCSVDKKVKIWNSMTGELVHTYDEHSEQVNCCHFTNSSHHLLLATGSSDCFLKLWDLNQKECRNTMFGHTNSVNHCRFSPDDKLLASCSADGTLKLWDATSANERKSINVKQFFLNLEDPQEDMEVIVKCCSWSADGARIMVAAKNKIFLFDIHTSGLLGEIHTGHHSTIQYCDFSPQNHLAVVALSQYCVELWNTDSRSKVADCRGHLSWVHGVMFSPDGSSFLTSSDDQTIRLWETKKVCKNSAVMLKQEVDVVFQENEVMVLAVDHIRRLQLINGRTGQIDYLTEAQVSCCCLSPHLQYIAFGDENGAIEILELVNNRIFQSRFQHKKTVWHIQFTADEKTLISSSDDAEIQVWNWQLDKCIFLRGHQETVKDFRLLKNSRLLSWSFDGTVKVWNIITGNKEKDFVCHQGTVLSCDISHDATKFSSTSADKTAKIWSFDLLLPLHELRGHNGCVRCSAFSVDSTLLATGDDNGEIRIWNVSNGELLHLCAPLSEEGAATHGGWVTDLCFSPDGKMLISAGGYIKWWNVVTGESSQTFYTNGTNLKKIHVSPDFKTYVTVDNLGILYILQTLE

[8] = molecular target: Neurotensin receptor type 1 (Homo sapiens, UniProt P30989); format: functional;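 note: Image-based confirmatory dose-response assay measuring agonist activity at NTR1; NTR1-expressing U2OS osteosarcoma cells imaged for beta-arrestin GFP spot formation; agonist potency where compounds increase beta-arrestin recruitment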
Chain of Neurotensin receptor type 1 (P30989 whole entry): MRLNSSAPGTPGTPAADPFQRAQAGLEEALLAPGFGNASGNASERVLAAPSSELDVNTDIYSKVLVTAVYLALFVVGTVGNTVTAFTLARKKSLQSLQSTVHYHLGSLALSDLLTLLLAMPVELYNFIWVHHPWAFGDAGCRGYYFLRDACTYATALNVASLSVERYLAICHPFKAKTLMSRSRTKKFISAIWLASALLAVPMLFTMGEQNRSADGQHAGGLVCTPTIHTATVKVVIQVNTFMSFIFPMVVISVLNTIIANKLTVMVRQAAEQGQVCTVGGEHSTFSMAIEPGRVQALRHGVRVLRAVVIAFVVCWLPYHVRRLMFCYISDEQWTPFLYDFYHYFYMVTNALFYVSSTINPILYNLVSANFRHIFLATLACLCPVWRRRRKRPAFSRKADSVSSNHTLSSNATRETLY

CCOC(=O)N1CCN(c2[nH]cnc3c4cc(OC)ccc4nc2-3)CC1
IC50 [1]: 18.4 µM (not active) | IC50 (Insulin-degrading enzyme): 9.15 µM (active) | IC50 [2]: 56.9 µM (inactive)

Cc1cccc(N2C(=O)/C(=C/Nc3ccccc3-c3nnc(S)nc3O)c3ccccc3C2=O)n1
IC50 [1]: > 55.7 µM (not active) | IC50 (Insulin-degrading enzyme): 12.2 µM (not active) | IC50 (Aminopeptidase N): 60.4 µM (active)

Cc1nn(CCc2nnn[nH]2)c2nc(-c3ccc(Br)cc3)cc(C(F)(F)F)c12
IC50 (Coagulation factor XII): > 50 µM (inactive) | IC50 [3]: 4.7 µM (active) | IC50 [4]: > 39.8 µM (not active)

Cc1ccc(NC(=O)CN(C)C(=O)c2ccc3[nH]c4c(c3c2)CC(C)CC4)cc1 (centres undefined)
IC50 (cells): 22.2 µM (active) | IC50 [5]: > 20 µM (inactive) | CC50 [6]: 28.2 µM (active) | IC50 [7]: > 100 µM (inactive)

CCOc1ccc(C(=O)Nc2nnc(NC(=S)Nc3ccccc3)s2)cc1
EC50 [8]: 9.68 µM (active)
